According to patent US9930889B2, “Synergistic weed control from applications of penoxsulam and mefenacet” (Dow AgroSciences LLC, priority 2012, dated 2018):

What was measured:
Assay in all cases: Field trial in flooded transplanted rice, % visual weed control
Type in all cases: in vivo
[1] = tested on: Echinochloa crus-galli (barnyard grass, ECHCG); settings: 42 days
Description: (§1) The (a) penoxsulam or an agriculturally acceptable salt thereof is mixed with or applied in combination with (b) mefenacet or an agriculturally acceptable salt thereof in an amount sufficient to induce a synergistic herbicidal effect. […] As described in the Herbicide Handbook of the Weed Science Society of America, Ninth Edition, 2007, p. 429, ′″synergism′ [is] an interaction of two or more factors such that the effect when combined is greater than the predicted effect based on the response to each factor applied separately.” Synergistic in the herbicide context can mean that the use of (a) and (b) as defined above results in an increased weed control effect compared to the weed control effects that are possible with the use of (a) or (b) alone. In some embodiments, the damage or injury to the undesired vegetation caused by the compositions and methods disclosed herein is evaluated using a scale from 0% to 100%, when compared with the untreated control vegetation, wherein 0% indicates no damage to the undesired vegetation and 100% indicates complete destruction of the undesired vegetation. […] 22 (1967)
(§2) Field trials were conducted in Japan with applications made in the area of naturally occurring weed populations. All treatments were applied using a randomized complete block trial design, with 3 replications per treatment. Plot size was 2 meters (m)×2 m (width×length), with each plot being a separate entity and flooded with water. Rice was transplanted into the plots, and the rice crop was maintained as a normal commercial crop with appropriate fertilizer and maintenance treatments as needed. Rice size at application varied from 4 leaf to 2 tiller stage, and weeds were 1 to 5 leaf stage. All plots were maintained flooded to 3 to 6 centimeter (cm) depth and treatments were applied by hand directly into the flooded plots containing the rice and weeds.
(§3) Treatments consisted of penoxsulam and mefenacet, applied alone or in combination. Penoxsulam was applied as a granule formulation (3.5 grams of active ingredient per kilogram (g ai/kg) granule (GR)) applied directly into the flooded plots, or as a liquid formulation (31 grams of active ingredient per liter (g ai/L) emulsifiable concentrate (EC)) mixed in 1 liter (L) of solution and applied into the flooded plots. Mefenacet, as the commercial product HINOCHLOA® containing 40 g ai/kg GR, was applied directly into the flooded plots.
(§4) The treated plots and control plots were rated blind at various intervals after application. Ratings were based on a scale of 0-100%, as discussed above, wherein 0% indicates complete growth of the undesired vegetation and 100% indicates complete prevention of the undesired vegetation.
(§5) Colby's equation was used to determine the herbicidal effects expected from the mixtures, as described above. The results were measured at the evaluation intervals provided in Table 1 after the application of the compositions (penoxsulam and mefenacet, applied alone or in combination). […] The herbicide tank mix combinations tested, application rates and ratios employed, plant species tested, and results are included in Table 1 below.

[2] = tested on: Eleocharis kuroguwai (kuro-guwai, ELOKU)
Description: as §1, §2, §3, §4, §5

[3] = tested on: Lindernia procumbens (common false pimpernel, LIDPY); settings: for Penoxsulam Mean % weed control: 18 g ai/ha
Description: as §1, §2, §3, §4, §5

[4] = tested on: Sagittaria pygmaea (dwarf arrowhead, SAGPY); settings: 44 days
Description: as §1, §2, §3, §4, §5

COc1cnc(OC)n2nc(NS(=O)(=O)c3c(OCC(F)F)cccc3C(F)(F)F)nc12 [Penoxsulam]
Penoxsulam Mean % weed control ([1]; 18 g ai/ha): 81%
Penoxsulam Mean % weed control ([2]; 34 days, 18 g ai/ha): 62%
Penoxsulam Mean % weed control ([2]; 44 days, 70 g ai/ha): 81%
Penoxsulam Mean % weed control ([2]; 52 days, 18 g ai/ha): 34%
Penoxsulam Mean % weed control ([2]; 52 days, 35 g ai/ha): 62%
Penoxsulam Mean % weed control ([2]; 52 days, 70 g ai/ha): 71%
Penoxsulam Mean % weed control ([2]; 61 days, 35 g ai/ha): 49%
Penoxsulam Mean % weed control ([2]; 61 days, 70 g ai/ha): 61%
Penoxsulam Mean % weed control ([3]; 18 days): 73%
Penoxsulam Mean % weed control ([3]; 23 days): 87%
Penoxsulam Mean % weed control ([3]; 24 days): 86%
Penoxsulam Mean % weed control ([3]; 42 days): 83%
Penoxsulam Mean % weed control ([4]; 35 g ai/ha): 82%

CN(C(=O)COc1nc2ccccc2s1)c1ccccc1 [Mefenacet, 2-(2-benzothiazolyloxy)-N-methyl-N-phenylacetamide]
Mefenacet Mean % weed control ([1]; 750 g ai/ha): 40%
Mefenacet Mean % weed control ([2]; 34 days, 500 g ai/ha): 0%
Mefenacet Mean % weed control ([2]; 34 days, 750 g ai/ha): 0%
Mefenacet Mean % weed control ([2]; 34 days, 1000 g ai/ha): 0%
Mefenacet Mean % weed control ([2]; 44 days, 1000 g ai/ha): 23%
Mefenacet Mean % weed control ([2]; 52 days, 750 g ai/ha): 33%
Mefenacet Mean % weed control ([2]; 52 days, 1000 g ai/ha): 20%
Mefenacet Mean % weed control ([2]; 61 days, 1000 g ai/ha): 0%
Mefenacet Mean % weed control ([3]; 18 days, 500 g ai/ha): 43%
Mefenacet Mean % weed control ([3]; 18 days, 750 g ai/ha): 50%
Mefenacet Mean % weed control ([3]; 18 days, 1000 g ai/ha): 57%
Mefenacet Mean % weed control ([3]; 23 days, 500 g ai/ha): 0%
Mefenacet Mean % weed control ([3]; 23 days, 750 g ai/ha): 27%
Mefenacet Mean % weed control ([3]; 24 days, 500 g ai/ha): 0%
Mefenacet Mean % weed control ([3]; 42 days, 500 g ai/ha): 0%
Mefenacet Mean % weed control ([4]; 500 g ai/ha): 0%
Mefenacet Mean % weed control ([4]; 750 g ai/ha): 0%
